The values that follow come from patent US10030006B2, “Coumarin based Hsp90 inhibitors with urea and ether substituents” (University of Kansas, priority 2013, dated 2018).

Type in all cases: cell-based
One assay concerns DRO81-1. Put plainly: Anti-proliferation assay, DRO81-1. The note with it: Table 6, substituted phenyl ureas; Thyroid. On the procedure:
(§1) Cells were maintained in a 1:1 mixture of Advanced DMEM/F12 (Gibco) supplemented with non-essential amino acids, L-glutamine (2 mM), streptomycin (500 μg/mL), penicillin (100 units/mL), and 10% FBS. Cells were grown to confluence in a humidified atmosphere (37° C., 5% CO2), seeded (2000/well, 100 μL) in 96-well plates, and allowed to attach overnight. Compound at varying concentrations in DMSO (1% DMSO final concentration) was added, and cells were returned to the incubator for 72 h. At 72 h, the number of viable cells was determined using an MTS/PMS cell proliferation kit (Promega) per the manufacturer's instructions. Cells incubated in 1% DMSO were used at 100% proliferation, and values were adjusted accordingly. IC50 values were calculated from separate experiments performed in triplicate using GraphPad Prism.

The test system of assay [1] is MCF-7 (estrogen receptor positive breast cancer cells). The assay can be described thus: Anti-proliferation assay (MTS/PMS, 72 h), MCF-7. The settings on record: Table 6, substituted phenyl ureas, Breast Cancer, read-out: IC50 MCF-3.
A further assay concerns HMLE. The assay can be described thus: Anti-proliferation assay, HMLE (normal). The settings on record: Table 6, substituted phenyl ureas. On the procedure: as §1
The subject of a further assay is MDA1986. Put plainly: Anti-proliferation assay, MDA1986. The note with it: Table 6, substituted phenyl ureas, HSNCC. How it is done: as §1
The next assay concerns JMAR. The assay can be described thus: Anti-proliferation assay, JMAR. The settings on record: Table 6, substituted phenyl ureas, HSNCC. On the procedure:
as §1

In a further assay the test system is MDAMB231. Put plainly: Anti-proliferation assay, MDAMB231. The note with it: Table 6, substituted phenyl ureas, Tri-Neg. How it is done: as §1
In a further assay the test system is MRC5. The assay can be described thus: Anti-proliferation assay, MRC5 (normal). On the procedure: as §1
The next assay relates to PC-3. Put plainly: Anti-proliferation assay, PC-3. The note with it: Table 6, substituted phenyl ureas, Prostate Cancer. On the procedure: as §1
For the next assay, the system named is A-549. Put plainly: Anti-proliferation assay, A-549. The note with it: Table 6, substituted phenyl ureas. On the procedure:
as §1

Assay [2] has as its system SKBr3 (estrogen receptor negative, Her2 over-expressing breast cancer cells). The assay can be described thus: Anti-proliferation assay (MTS/PMS, 72 h), SKBr3. The note with it: Table 6, substituted phenyl ureas, Breast Cancer, read-out: IC50 SKBr3.
The next assay has as its system HCT-116. The assay can be described thus: Anti-proliferation assay, HCT-116. The note with it: Table 6, substituted phenyl ureas. How it is done: as §1
Where [3] appears, read: Homo sapiens, MRC5, Table 6, substituted phenyl ureas.

Where two headings read alike, the source gives them in different places.

With `Cc1c(OC2CCN(C)CC2)ccc2cc(NC(=O)Nc3ccc(F)cc3)c(=O)oc12` [p-F, 1-(4-fluorophenyl)-3-(8-methyl-7-((1-methylpiperidin-4-yl)oxy)-2-oxo-2H-chromen-3-yl)urea], the 50% inhibitory concentration (IC50) was 19.9 µM with DRO81-1; 0.96 µM in assay [1] (Homo sapiens, MCF7); more than 25 µM in the assay with HMLE (HMLE); 0.01 µM with MDA1986 (MDA1986); 8.6 µM in the assay on JMAR (JMAR); 0.05 µM with MDAMB231 (Homo sapiens, MDA-MB-231). For the same molecule, the IC50 in the assay with MRC5 (setting [3]) is more than 25 µM; in the assay on PC-3 (Homo sapiens, PC-3), 3.32 µM; in the assay on A-549 (Homo sapiens, A549), 1.06 µM; in assay [2] (Homo sapiens, SK-BR-3) it was 0.48 µM; with HCT-116 (Homo sapiens, HCT-116) it was 0.061 µM.
As to `Cc1c(OC2CCN(C)CC2)ccc2cc(NC(=O)Nc3ccc(Cl)cc3)c(=O)oc12` [p-Cl, 1-(4-chlorophenyl)-3-(8-methyl-7-((1-methylpiperidin-4-yl)oxy)-2-oxo-2H-chromen-3-yl)urea], the IC50 was 15.8 µM in the assay on DRO81-1; 0.36 µM in assay [1] (Homo sapiens, MCF7); more than 25 µM in the assay with HMLE (HMLE); more than 25 µM in the assay on MDA1986 (MDA1986); 6.1 µM with JMAR (JMAR); more than 25 µM in the assay with MDAMB231 (Homo sapiens, MDA-MB-231). Further, the 50% inhibitory concentration (IC50) in the assay with MRC5 (setting [3]) was more than 25 µM; with PC-3 (Homo sapiens, PC-3) it was 2.3 µM; with A-549 (Homo sapiens, A549), 0.16 µM; in assay [2] (Homo sapiens, SK-BR-3), 0.17 µM; with HCT-116 (Homo sapiens, HCT-116), 0.42 µM.
For `Cc1c(OC2CCN(C)CC2)ccc2cc(NC(=O)Nc3ccc(C(C)C)cc3)c(=O)oc12` [p-CH(CH3)2, 1-(4-isopropylphenyl)-3-(8-methyl-7-((1-methylpiperidin-4-yl)oxy)-2-oxo-2H-chromen-3-yl)urea], the IC50 worked out at 0.3 µM in the assay on DRO81-1; 0.82 µM in [1] (Homo sapiens, MCF7); 6.4 µM in the assay on HMLE (HMLE); 1.11 µM with MDA1986 (MDA1986); 0.88 µM in the assay with JMAR (JMAR); 0.61 µM in the assay with MDAMB231 (Homo sapiens, MDA-MB-231). In addition, the IC50 with MRC5 (setting [3]) was 1.9 µM; with PC-3 (Homo sapiens, PC-3), 0.13 µM; with A-549 (Homo sapiens, A549), 0.16 µM; in [2] (Homo sapiens, SK-BR-3), 0.67 µM; in the assay on HCT-116 (Homo sapiens, HCT-116), 1.06 µM.
`COc1ccc(NC(=O)Nc2cc3ccc(OC4CCN(C)CC4)c(C)c3oc2=O)cc1` [p-OCH3, 1-(4-methoxyphenyl)-3-(8-methyl-7-((1-methylpiperidin-4-yl)oxy)-2-oxo-2H-chromen-3-yl)urea]: the IC50 in the assay on DRO81-1 is 29 µM; in [1] (Homo sapiens, MCF7), 0.96 µM; with HMLE (HMLE), 0.74 µM; with MDA1986 (MDA1986), 2.6 µM; in the assay with JMAR (JMAR), 8.4 µM; in the assay with MDAMB231 (Homo sapiens, MDA-MB-231), 2.4 µM. Moreover, the IC50 worked out at 2.7 µM with MRC5 (setting [3]); 0.52 µM in the assay with PC-3 (Homo sapiens, PC-3); 1.09 µM in the assay on A-549 (Homo sapiens, A549); 0.86 µM in [2] (Homo sapiens, SK-BR-3); 0.25 µM with HCT-116 (Homo sapiens, HCT-116).
In the case of `CC(=O)c1ccc(NC(=O)Nc2cc3ccc(OC4CCN(C)CC4)c(C)c3oc2=O)cc1` [p-COCH3], the half-maximal inhibitory concentration (IC50) in the assay with DRO81-1 was found to be 13.3 µM; in [1] it was 1.72 µM; in the assay on HMLE, 8 µM; in the assay on MDA1986, 3.4 µM; with JMAR it was 11.9 µM; in the assay on MDAMB231 it was 0.75 µM. The IC50 with MRC5 (Table 6, substituted phenyl ureas) worked out at 7.7 µM; in the assay on PC-3, 2.75 µM; in the assay with A-549 it was 0.24 µM; in [2] it was 1.52 µM; in the assay on HCT-116 it was 0.25 µM.
In the case of `Cc1c(OC2CCN(C)CC2)ccc2cc(NC(=O)Nc3ccc(C(C)(C)C)cc3)c(=O)oc12` [p-C(CH3)3, 1-(4-(tert-butyl)phenyl)-3-(8-methyl-7-((1-methylpiperidin-4-yl)oxy)-2-oxo-2H-chromen-3-yl)urea], the IC50 amounted to 0.71 µM in the assay on DRO81-1; 0.96 µM in assay [1] (Homo sapiens, MCF7); 14.5 µM in the assay with HMLE (HMLE); 0.57 µM in the assay on MDA1986 (MDA1986); 0.49 µM in the assay with JMAR (JMAR); 0.5 µM with MDAMB231 (Homo sapiens, MDA-MB-231). The half-inhibitory concentration (IC50) with MRC5 (setting [3]) turned out to be 1.8 µM; with PC-3 (Homo sapiens, PC-3) it was 0.14 µM; with A-549 (Homo sapiens, A549), 0.092 µM; in [2] (Homo sapiens, SK-BR-3), 0.93 µM; in the assay on HCT-116 (Homo sapiens, HCT-116), 0.21 µM.
Regarding `Cc1ccc(NC(=O)Nc2cc3ccc(OC4CCN(C)CC4)c(C)c3oc2=O)c(C)c1` [2,4-dimethyl, 1-(2,4-dimethylphenyl)-3-(8-methyl-7-((1-methylpiperidin-4-yl)oxy)-2-oxo-2H-chromen-3-yl)urea], the IC50 with DRO81-1 is 2.3 µM; in assay [1] (Homo sapiens, MCF7) it was 1.11 µM; in the assay on HMLE (HMLE), more than 25 µM; in the assay on MDA1986 (MDA1986) it was 1.9 µM; in the assay on JMAR (JMAR), 1.1 µM; in the assay on MDAMB231 (Homo sapiens, MDA-MB-231), 2.6 µM. For the same molecule, the IC50 in the assay on MRC5 (setting [3]) turned out to be 3.6 µM; in the assay on PC-3 (Homo sapiens, PC-3), 0.27 µM; with A-549 (Homo sapiens, A549), 0.43 µM; in assay [2] (Homo sapiens, SK-BR-3), 3.79 µM; in the assay with HCT-116 (Homo sapiens, HCT-116), 0.77 µM.
For the molecule `Cc1c(OC2CCN(C)CC2)ccc2cc(NC(=O)Nc3ccc(Cl)c(Cl)c3)c(=O)oc12` [3,4-dichloro, 1-(3,4-dichlorophenyl)-3-(8-methyl-7-((1-methylpiperidin-4-yl)oxy)-2-oxo-2H-chromen-3-yl)urea], the half-maximal inhibitory concentration (IC50) in the assay on DRO81-1 came out at 13.2 µM; in assay [1] (Homo sapiens, MCF7) it was 1.78 µM; with HMLE (HMLE), 1.5 µM; in the assay with MDA1986 (MDA1986), 2.6 µM; with JMAR (JMAR), 6.7 µM; with MDAMB231 (Homo sapiens, MDA-MB-231) it was 2.9 µM. Besides, the IC50 in the assay with MRC5 (setting [3]) is 2.1 µM; in the assay on PC-3 (Homo sapiens, PC-3), 2.04 µM; with A-549 (Homo sapiens, A549), 1.82 µM; in assay [2] (Homo sapiens, SK-BR-3) it was 0.64 µM; with HCT-116 (Homo sapiens, HCT-116), 17 µM.
`Cc1c(OC2CCN(C)CC2)ccc2cc(NC(=O)Nc3ccc(Br)cc3)c(=O)oc12` [p-Br, 1-(4-bromophenyl)-3-(8-methyl-7-((1-methylpiperidin-4-yl)oxy)-2-oxo-2H-chromen-3-yl)urea]: the IC50 stood at 3.5 µM with DRO81-1; 1.04 µM in [1] (Homo sapiens, MCF7); 6 µM in the assay on HMLE (HMLE); 3.5 µM in the assay on MDA1986 (MDA1986); 3.6 µM in the assay with JMAR (JMAR); 2.6 µM in the assay on MDAMB231 (Homo sapiens, MDA-MB-231). For the same molecule, the IC50 with MRC5 (setting [3]) came out at 5.5 µM; with PC-3 (Homo sapiens, PC-3) it was 0.18 µM; in the assay on A-549 (Homo sapiens, A549), 0.11 µM; in assay [2] (Homo sapiens, SK-BR-3) it was 0.65 µM; with HCT-116 (Homo sapiens, HCT-116) it was 0.24 µM.
Take `Cc1ccc(NC(=O)Nc2cc3ccc(OC4CCN(C)CC4)c(C)c3oc2=O)cc1C` [3,4-dimethyl, 1-(3,4-dimethylphenyl)-3-(8-methyl-7-((1-methylpiperidin-4-yl)oxy)-2-oxo-2H-chromen-3-yl)urea]: the IC50 in the assay on DRO81-1 amounted to 8.1 µM; in [1] (Homo sapiens, MCF7), 0.33 µM; with HMLE (HMLE) it was 0.9 µM; with MDA1986 (MDA1986) it was 1.3 µM; in the assay with JMAR (JMAR) it was 1.7 µM; in the assay with MDAMB231 (Homo sapiens, MDA-MB-231), 1.9 µM. Further, the IC50 with MRC5 (setting [3]) is 2.7 µM; with PC-3 (Homo sapiens, PC-3), 1.33 µM; in the assay on A-549 (Homo sapiens, A549), 0.063 µM; in assay [2] (Homo sapiens, SK-BR-3), 0.31 µM; with HCT-116 (Homo sapiens, HCT-116) it was 0.066 µM.
As to `Cc1c(OC2CCN(C)CC2)ccc2cc(NC(=O)Nc3ccc([N+](=O)[O-])cc3)c(=O)oc12` [p-NO2, 1-(8-methyl-7-((1-methylpiperidin-4-yl)oxy)-2-oxo-2H-chromen-3-yl)-3-(4-nitrophenyl)urea], the IC50 was 11.5 µM in the assay on DRO81-1; 4.24 µM in [1] (Homo sapiens, MCF7); more than 25 µM in the assay on HMLE (HMLE); 6.6 µM in the assay with MDA1986 (MDA1986); 7.3 µM in the assay with JMAR (JMAR); 2.1 µM in the assay with MDAMB231 (Homo sapiens, MDA-MB-231). Besides, the IC50 was more than 25 µM in the assay with MRC5 (setting [3]); 1.06 µM in the assay on PC-3 (Homo sapiens, PC-3); 0.95 µM with A-549 (Homo sapiens, A549); 0.58 µM in assay [2] (Homo sapiens, SK-BR-3); 2.83 µM with HCT-116 (Homo sapiens, HCT-116).

In general, IC50 refers to the concentration needed to halve the response being measured.
